Measurements: US20240226107A1, “UBIQUITIN-SPECIFIC PROTEASE 1 (USP1) INHIBITOR” (SIMCERE ZAIMING PHARMACEUTICAL CO., LTD., priority 2021, published 2024)
pIC50: −log10 of the molar value. Like-named read-outs stand apart in the source and are kept apart here.

Columns and labels:
[1] = molecular target: CYP2C19 (Homo sapiens (Human), UniProt P33261); assay: CYP enzyme inhibition in pooled human liver microsomes (S-mephenytoin); format: in vitro ADME
Procedure: Typical substrate metabolic responses of five major human CYP subtypes (CYP1A2, CYP2C9, CYP2C19, CYP2D6, CYP3A4) were evaluated using 150-donor pooled human liver microsomes (purchased from Corning, Cat. No.: 452117). The influence of different concentrations of each compound to be tested on metabolic responses of phenacetin (CYP1A2), diclofenac sodium (CYP2C9), S-mephenytoin (CYP2C19), bufuralol hydrochloride (CYP2D6), and midazolam (CYP3A4) was determined by liquid chromatography-mass spectrometry (LC/MS/MS). […] Then 200 μL of acetonitrile solution containing 3% formic acid and 40 nM internal standard verapamil was added and centrifuged at 4000 rpm for 50 min. The mixture was cooled on ice for 20 min and centrifuged at 4000 rpm for 20 min to precipitate the protein. Then 200 μL of supernatant was analyzed by LC-MS/MS. The peak area was calculated from the chromatogram. The residual activity ratio (%) was calculated according to the following equation: Peak area ratio=metabolite peak area/internal standard peak area Residual activity ratio (%)=peak area ratio of compounds-to-be-tested group/peak area ratio of blank group The half inhibitory concentration (IC50) for CYP was calculated by Excel XLfit 5.3.1.3.

[2] = Solubility (PBS pH 7.4) of compound solids; format: physicochemical; conditions: aqueous buffer, thermodynamic from solid, PBS pH 7.4, 25° C.
Procedure: The solubility (PBS pH 7.4) of compound solids to be tested was determined by LC/MS/MS. Approximately 1 mg of each compound powder was accurately weighed into a glass vial, and DMSO was added in a volume of 1 mL per milligram of compound. […] In 490 μL of water and acetonitrile (1:1) containing an internal standard, 5 μL of 1 mg/mL solution and 5 μL of PBS pH 7.4 solution were mixed to prepare 10 μg/mL standard concentration solution of the sample to be tested. Then 10 μL of 10 μg/mL solution was diluted in 90 μL of water and acetonitrile (1:1) containing an internal standard to prepare 1 μg/mL standard concentration solution of the sample to be tested. The dilution factor of the standard solution can be adjusted according to the strength of response signals in LC/MS. Approximately 1 mg of each compound powder was accurately weighed into a glass vial, and PBS pH 7.4 solution was added in a volume of 1 mL per milligram of compound. A stir bar was added to each vial, and the solubility sample vial was shaken at 1100 rpm at 25° C. for 24 h. After shaking, the stir bar was removed, and the sample was transferred to a filter plate and filtered using a vacuum manifold. […]
The resulting samples were determined by LC/MS/MS. The sample solubility was calculated from peak areas of the solution of the compound to be tested and the standard concentration solution, according to the following equation: […]

Chain of CYP2C19 (P33261 whole entry): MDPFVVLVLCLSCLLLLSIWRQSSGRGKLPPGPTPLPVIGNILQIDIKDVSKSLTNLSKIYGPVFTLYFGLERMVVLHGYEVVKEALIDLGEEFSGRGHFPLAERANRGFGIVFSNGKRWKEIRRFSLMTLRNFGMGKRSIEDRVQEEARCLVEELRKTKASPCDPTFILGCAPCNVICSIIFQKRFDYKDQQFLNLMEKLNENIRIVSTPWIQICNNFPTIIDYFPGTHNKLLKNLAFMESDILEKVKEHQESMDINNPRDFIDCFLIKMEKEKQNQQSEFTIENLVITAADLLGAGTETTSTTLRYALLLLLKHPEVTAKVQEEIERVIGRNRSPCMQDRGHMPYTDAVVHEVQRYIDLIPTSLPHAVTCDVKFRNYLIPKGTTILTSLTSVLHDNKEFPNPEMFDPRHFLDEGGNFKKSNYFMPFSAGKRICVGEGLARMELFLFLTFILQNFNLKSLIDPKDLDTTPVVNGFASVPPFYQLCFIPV

pIC50 [1]: 4.77 | solubility at 24 h ([2]; read-out: Calculated solubility): 181 µM | solubility at 24 h ([2]; read-out: Solubility): 99.7 µg/mL
Compound: COc1ncnc(C2CC2)c1-c1ncc2c(n1)N(Cc1ccc(-c3nc(C(F)(F)F)cn3C)cc1)CC(=O)N2C [Compound 11, 2-(4-cyclopropyl-6-methoxypyrimidin-5-yl)-5-methyl-8-(4-(1-methyl-4-(trifluoromethyl)-1H-imidazol-2-yl)benzyl)-7,8-dihydropteridin-6(5H)-one]
